Test results: PMC12274840 (The Journal of Biological Chemistry, 2025)
Several values for one entry are separate records, joined by “and”; a condition that tells them apart may be missing. Equal values may be shown once. Read-outs that look alike come from different tables or passages of the source.

How the values were obtained:
BlaC WT [1] = target: T1, BlaC WT (Mycobacterium tuberculosis, UniProt P9WKD3); format: biochemical
T1 construct: correspond to residue numbers 41-307 of BlaC (Uniprot entry P9WKD3-1); His tag with TEV cleavage site (N); made in house; host or cells: E. coli BL21 (DE3) pLysS
T1 sequence (P9WKD3 41-307): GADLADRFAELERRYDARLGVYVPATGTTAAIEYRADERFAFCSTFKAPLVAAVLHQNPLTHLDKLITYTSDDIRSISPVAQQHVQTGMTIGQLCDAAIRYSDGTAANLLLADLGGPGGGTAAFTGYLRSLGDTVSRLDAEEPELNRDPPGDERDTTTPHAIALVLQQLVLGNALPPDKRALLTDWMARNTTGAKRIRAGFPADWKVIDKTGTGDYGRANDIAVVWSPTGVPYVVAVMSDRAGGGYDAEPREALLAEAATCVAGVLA

[2] = tested on: E. coli KA797 cells carrying pUK21 with CTX-M-14 Y105R; format: cell-based, Escherichia coli; conditions: in combination with 100 μg/ml carbenicillin
[3] = tested on: E. coli KA797 cells carrying pUK21 with KPC-2 (Tat); assay: microbe, parasite or virus in culture; format: cell-based; conditions: in combination with 100 μg/ml carbenicillin
[4] = tested on: E. coli KA797 cells carrying pUK21 with TEM-1 Y105G; format: cell-based, Escherichia coli; conditions: in combination with 100 μg/ml carbenicillin
[5] = tested on: E. coli KA797 cells carrying pUK21 with TEM-1 WT (Sec); assay: microbe, parasite or virus in culture; format: cell-based; conditions: in combination with 100 μg/ml carbenicillin
[6] = tested on: E. coli KA797 cells carrying pUK21 with BlaC I105R; format: cell-based, Escherichia coli; conditions: in combination with 100 μg/ml carbenicillin
[7] = tested on: E. coli KA797 cells carrying pUK21 with BlaC I105G; format: cell-based, Escherichia coli; conditions: in combination with 100 μg/ml carbenicillin
[8] = tested on: E. coli KA797 cells carrying pUK21 with CTX-M-14 WT (Tat); assay: microbe, parasite or virus in culture; format: cell-based; conditions: in combination with 100 μg/ml carbenicillin
[9] = tested on: E. coli KA797 cells carrying BlaC position 105 library; format: cell-based, Escherichia coli; conditions: for Fi AVG (average fitness): average of replicates
[10] = tested on: E. coli KA797 cells carrying pUK21 with BlaC WT (Tat); assay: microbe, parasite or virus in culture; format: cell-based; conditions: in combination with 100 μg/ml carbenicillin
TEM-1 WT [11] = target: T2, TEM-1 WT (Escherichia coli, UniProt P62593); format: biochemical; parameters: 24 to 286 of TEM-1 (P62593); His tag with TEV cleavage site (N); made in house; host or cells: E. coli BL21 (DE3) pLysS
[12] = tested on: E. coli KA797 cells carrying pUK21 with CTX-M-14 Y105G; format: cell-based, Escherichia coli; conditions: in combination with 100 μg/ml carbenicillin
TEM-1 Y105G [13] = target: T3, TEM-1 Y105G (Escherichia coli, UniProt P62593, Y103G); assay: In vitro inhibition of nitrocefin hydrolysis and simulation of inhibition curves, TEM-1 Y105G; format: biochemical
[14] = tested on: E. coli KA797 cells carrying CTX-M-14 position 105 library; format: cell-based
[15] = tested on: E. coli KA797 cells carrying pUK21 with TEM-1 Y105R; format: cell-based, Escherichia coli; conditions: in combination with 100 μg/ml carbenicillin
[16] = tested on: E. coli KA797 cells carrying pUK21 with NmcA (pelB/Sec); assay: microbe, parasite or virus in culture; format: cell-based; conditions: in combination with 25 μg/ml carbenicillin
TEM-1 Y105G [17] = target: T3, TEM-1 Y105G; assay: Steady-state kinetics of substrate hydrolysis, TEM-1 Y105G; format: biochemical; conditions: phosphate buffer pH 6.4, 25 °C
CTX-M-14 Y105G [18] = target: T4, CTX-M-14 Y105G (Escherichia coli, UniProt Q9L5C7, Y108G); format: biochemical
T4 construct: 29 to 291 of CTX-M-14 (Q9L5C7); His tag with TEV cleavage site (N); made in house; host or cells: E. coli BL21 (DE3) pLysS

TEM-1 WT [19] = target: T2, TEM-1 WT; conditions: phosphate buffer pH 6.4, 25 °C
CTX-M-14 Y105G [20] = target: T4, CTX-M-14 Y105G; assay: biochemical
CTX-M-14 WT = target: T5, CTX-M-14 WT (Escherichia coli, UniProt Q9L5C7); assay: biochemical
T5 construct: 29 to 291 of CTX-M-14 (Q9L5C7); His tag with TEV cleavage site (N); made in house; host or cells: E. coli BL21 (DE3) pLysS

BlaC WT [21] = target: T1, BlaC WT; conditions: pH 6.4, cited from earlier work
[22] = clavulanic acid, simulation Eq 2/8, TEM-1 WT
[23] = clavulanic acid, simulation Eq 2/8
[24] = nitrocefin parameter (Eq 7) in simulation of avibactam inhibition curves, CTX-M-14 Y105G
[25] = nitrocefin parameter (Eq 7) in simulation of avibactam inhibition curves
[26] = nitrocefin parameter (Eq 7) in simulation of clavulanic acid inhibition curves

Structure (SMILES): O=C(O)[C@H]1/C(=C/CO)O[C@@H]2CC(=O)N21 [clavulanic acid]
- k1 (BlaC WT [1]): 1e+06 M⁻¹ s⁻¹
- k2 (BlaC WT [1]): 4.5 and 4.5 10^−2 s^−1
- k3 (BlaC WT [1]): 1.8
- MIC of inhibitor [2]: 1 µg/mL
- MIC of inhibitor [3]: 1 µg/mL
- MIC of inhibitor [4]: 32 µg/mL
- MIC of inhibitor [5]: 2 µg/mL
- MIC of inhibitor [6]: 4 µg/mL
- MIC of inhibitor [7]: 1 µg/mL
- MIC of inhibitor [8]: 1 µg/mL
- Significance of average fitness ([9]; AA 105 Ala (BlaC I105A)): +
- Fi AVG (average fitness) ([9]; AA 105 Ala (BlaC I105A), relative to WT Ile): 0.441
- Significance of average fitness ([9]; AA 105 Arg (BlaC I105R)): +
- Fi AVG (average fitness) ([9]; AA 105 Arg (BlaC I105R), relative to WT Ile): 0.649
- Fi AVG (average fitness) ([9]; AA 105 Asn (BlaC I105N), relative to WT Ile): -0.00565
- Fi AVG (average fitness) ([9]; AA 105 Asp (BlaC I105D), relative to WT Ile): -0.195
- Fi AVG (average fitness) ([9]; AA 105 Cys (BlaC I105C), relative to WT Ile): 0.048
- Fi AVG (average fitness) ([9]; AA 105 Gln (BlaC I105Q), relative to WT Ile): -0.027
- Fi AVG (average fitness) ([9]; AA 105 Glu (BlaC I105E), relative to WT Ile): -0.066
- Significance of average fitness ([9]; AA 105 Gly (BlaC I105G)): +
- Fi AVG (average fitness) ([9]; AA 105 Gly (BlaC I105G), relative to WT Ile): 0.325
- Fi AVG (average fitness) ([9]; AA 105 His (BlaC I105H), relative to WT Ile): 0.091
- Fi AVG (average fitness) ([9]; AA 105 Ile (BlaC WT, reference)): 0.000
- Fi AVG (average fitness) ([9]; AA 105 Leu (BlaC I105L), relative to WT Ile): 0.152
- Fi AVG (average fitness) ([9]; AA 105 Lys (BlaC I105K), relative to WT Ile): 0.212
- Fi AVG (average fitness) ([9]; AA 105 Met (BlaC I105M), relative to WT Ile): 0.159
- Significance of average fitness ([9]; AA 105 Phe (BlaC I105F)): +
- Fi AVG (average fitness) ([9]; AA 105 Phe (BlaC I105F), relative to WT Ile): 0.271
- Fi AVG (average fitness) ([9]; AA 105 Pro (BlaC I105P), relative to WT Ile): 0.200
- Significance of average fitness ([9]; AA 105 Ser (BlaC I105S)): +
- Fi AVG (average fitness) ([9]; AA 105 Ser (BlaC I105S), relative to WT Ile): 0.440
- Significance of average fitness ([9]; AA 105 Thr (BlaC I105T)): +
- Fi AVG (average fitness) ([9]; AA 105 Thr (BlaC I105T), relative to WT Ile): 0.421
- Fi AVG (average fitness) ([9]; AA 105 Trp (BlaC I105W), relative to WT Ile): 0.208
- Significance of average fitness ([9]; AA 105 Tyr (BlaC I105Y)): +
- Fi AVG (average fitness) ([9]; AA 105 Tyr (BlaC I105Y), relative to WT Ile): 0.298
- Fi AVG (average fitness) ([9]; AA 105 Val (BlaC I105V), relative to WT Ile): 0.071
- WT abs Fi 1 ([9]; absolute fitness of BlaC WT (Ile 105), replicate 1): -0.077
- WT abs Fi 2 ([9]; absolute fitness of BlaC WT (Ile 105), replicate 2): 0.311
- MIC of inhibitor [10]: 0.5 µg/mL
- k2 (TEM-1 WT [11]; [22]): 8 10^−2 s^−1
- k3 (TEM-1 WT [11]; [22]): 1.8 10^−3 s^−1
- k1 (TEM-1 WT [11]; clavulanic acid, simulation Eq 8, TEM-1 WT): 900000 M⁻¹ s⁻¹
- MIC of inhibitor [12]: 1 µg/mL
- k2 (TEM-1 Y105G [13]; [23]): 9.6 10^−2 s^−1
- k3 (TEM-1 Y105G [13]; [23]): 3.1 10^−3 s^−1
- Significance of average fitness ([14]; CTX-M-14 AA 105 Arg): -
- Significance of average fitness ([14]; CTX-M-14 AA 105 Gly): +
- Significance of average fitness ([14]; CTX-M-14 AA 105 Trp): +
- WT abs Fi 1 (absolute fitness of wild type, Replicate 1) ([14]; CTX-M-14 WT (Tyr 105)): -0.544
- WT abs Fi 2 (absolute fitness of wild type, Replicate 2) ([14]; CTX-M-14 WT (Tyr 105)): -0.635
- MIC of inhibitor [15]: 2 µg/mL
- MIC of inhibitor [16]: 2 µg/mL

Structure (SMILES): O=C(Cc1cccs1)N[C@@H]1C(=O)N2C(C(=O)O)=C(/C=C/c3ccc([N+](=O)[O-])cc3[N+](=O)[O-])CS[C@H]12 [nitrocefin]
- ka (BlaC WT [1]): 1.05e+06 M⁻¹ s⁻¹
- kc (BlaC WT [1]): 82.5 s⁻¹ and 56 s⁻¹
- kcat (TEM-1 Y105G [17]): 453 ± 80 s⁻¹
- kcat (CTX-M-14 Y105G [18]; phosphate buffer pH 6.4, 25 °C): 963 ± 117 s⁻¹
- Km (CTX-M-14 Y105G [18]; read-out: KM^app, phosphate buffer pH 6.4, 25 °C): 700 ± 172 µM
- kcat (TEM-1 WT [19]): 933 ± 33 s⁻¹
- Kd (CTX-M-14 Y105G [20]): 760 µM
- ka (CTX-M-14 Y105G [20]; [24]): 5e+07 M⁻¹ s⁻¹
- kc (CTX-M-14 Y105G [20]; [24]): 460 s⁻¹
- ka (TEM-1 WT [11]): 4.5e+07 M⁻¹ s⁻¹
- kc (TEM-1 WT [11]): 830 s⁻¹ and 1040 s⁻¹
- Kd (CTX-M-14 WT): 50 µM
- kc (CTX-M-14 WT): 545 s⁻¹
- ka (TEM-1 Y105G [13]; [25]): 1e+07 M⁻¹ s⁻¹
- kc (TEM-1 Y105G [13]; [25]): 95 s⁻¹
- ka (TEM-1 Y105G [13]; [26]): 1e+07 M⁻¹ s⁻¹
- kc (TEM-1 Y105G [13]; [26]): 154 s⁻¹
- kcat (BlaC WT [21]): 86 ± 2 s⁻¹
- Km (BlaC WT [21]; read-out: KM^app): 131 ± 2 µM
